Laboratory results reported in US20060135569A1, “Use of benzisoselenazolone compounds against ischemic myocardial damage” (priority 2002, published 2006).
Marks after values point to notes of the source that are not given here.

How the values were obtained:
TA100 = experiment: Ames test, strain TA100; assay type: cell-based
Procedure: (§1) To assess the mutagenic effects of 5 compounds (IMM-004; IMM-065; IMM-127; IMM-128; IMM-313), the Ames test was performed in 4 strains (TA97; TA98; TA100; TA102). The experiment was conducted with compounds at 4 concentration levels (0.5, 5, 50 and 500 μg/dish). […]

[1] = system: isolated rat hearts subjected to ischemia-reperfusion (I/R); experiment: Isolated heart subjected to ischemia/reperfusion injury (arrhythmia)
Procedure: Based on the pre-electrophysiological cell model screening, we have compared the inhibition ratios of the outward current by reverse-transportation of Na^+/Ca^2+ exchange, and further in vitro tests on isolated rat hearts subjected to ischemia-reperfusion (I/R) were conducted. Prolongation of ventricular arrhythmic, incidence rate of ventricular extrasystole, ventricular tachycardia/ventricular fibrillation (VT/VF) were recorded to evaluate the protective actions of drugs on myocardial injury.
On the basis of above screening results obtained from electrophysiological studies, and the result from comparative study on the research of the inhibitory effect of compounds on reverse mode Na^+/Ca^2+ exchange process, 7 effective compounds were subjected to in vitro study. Among which, IMM-313, IMM-004 and IMM-132 have structures containing chlorine; IMM-127, IMM-128 and IMM-129 have structures containing fluorine; and IMM-065 has a structure containing OH. The experiment performed in the isolated heart subjected to ischemia/reprefusion insult. Prolongation of ventricular arrhythmic, incidence of ventricular extrasystole, ventricular tachycardia/ventricular fibrillation (VT/VF) were recorded in order to evaluate the protective actions of drugs on myocardial injury.

Na^+/Ca^2+ exchanger = biological target: T1, Na^+/Ca^2+ exchanger (Cavia porcellus, UniProt P48766); experiment: Na^+/Ca^2+ exchange current (INa—Ca), whole-cell patch clamp, intracellular Na^+ overload cell model; assay type: cell-based, guinea pig
T1 construct: endogenous in cells; host or cells: freshly isolated guinea pig ventricular myocytes
From the text: 1. Establishment of Assaying Method for Biphasical Current Detection in Na^+/Ca^2+ Exchange System
Since the reverse mode of Na^+/Ca^2+ exchange process is one of the main mechanisms involving in ischemia/reperfusion insult, it is of great importance to establish cell model represented reverse mode Na^+/Ca^2+ exchange process for the development of drugs against ischemic injury. Therefore, we successfully established cell model of reverse mode Na^+/Ca^2+ exchange system by intracellular Na^+ dialysis technique, and recorded Na^+/Ca^2+ exchange currents by patch clamp experiment.
Internal solution contained certain concentration of NaCl was filled to the microcatheter, and ion exchange process between the cellular and internal solutions was conducted after whole cell currents were recorded by patch clamp. Na^+ contained in the internal solution was dialyzed into the cell; result in the high intracellular Na^+ concentration. After that, the cell was champed at a holding potential of −40 mV, then depolarized to +60 mV and followed by a conversely declining ramp stimuli at a speed of 80 mV·s^−1 and 2 s conditioning pulse, then repolarized to −100 mV with a frequency of 0.05 Hz. Under the stimulation protocol, current from outward to the inward direction was recorded by perfusing modified biphasical Tyrode solution (in which the outward and inward currents can be recorded simultaneously) with the addition of 1 mmol·L^−1 of BaCl2 and 2 mmol·L^−1 of CsCl to block K^+ channels, 1 μmol·L^−1 of verapamil to block L-type Ca^2+ channels, and 20 μmol·L^−1 of ouabain to block Na^+/K^+ ATPase, and 20 mmol·L^−1 of TEA to block potassium channels. The recorded inward currents were presented in a linear manner owing to the blockade of other time-dependent currents. With the increase of intracellular Na^+ level and prolongation of time, the reverse mode of Na^+/Ca^2+ exchange process was activated. […] Under such experimental conditioning, the maximum reverse mode current was recorded 3 min after cell crushed. No significant “run-down” was observed within the record period of 8 minutes. The inward and outward current were inhibited by 5 mmol·L^−1 of Ni^2+ treatment, and the experiment result in two current-voltage curves in the absence or presence of Ni^2+. The Ni^2+ sensitive current, also called electrophysiological Na^+/Ca^2+ exchange current (INa·Ca), was the minus result of two current-voltage curves. The reverse mode potential of INa—Ca was about −20 mV
Male guinea pigs weighting 250˜280 g provided by the Animal Center of the Chinese Academy of Medical Sciences were hammered and sacrificed. The chest was opened and the heart was removed quickly. Fatty tissue and pericardium were removed in a Ca^2+-free solution at 4° C., and heart was sequentially mounted on a Langendorff apparatus. First, the heart was perfused conversely via the aorta for 6 min with Ca^2+-free solution in order to wash out residual blood, then the heart expands and the color of it turns to pink. Then the heart was perfused with Ca^2+-free solution containing 0.1 mg/ml of pronase E, 0.5 mg/ml defatted bovine serum albumin (BSA) and 150 μM Ca^2+ for 2˜3 min, until the heart expanded and became soft. The atrium was removed, and the digested heart was minced with scissors, stirred in a beaker at 37° C. for 5˜10 min. The supernatant was diluted with Ca^2+-free solution containing 0.5 mg/ml BSA and 1.8 mM Ca^2+. The supernatant was placed at room temperature (20˜24° C.) for 1 hr and then subjected to the experiment. During the whole perfusion period, pressure was kept at 70 cmH2O and the temperature of solution was kept at 37° C. with continuously gassed with 95% O2 and 5% CO2.
Rod-shaped cells with clear striations and intact membrane were used. […]

TA97 = experiment: Ames test, strain TA97; assay type: cell-based
Procedure: as §1

TA97; TA98; TA100; TA102 = experiment: Ames (mutagenesis) test, overall result in 4 strains; assay type: cell-based; settings: 0.5, 5, 50 and 500 μg/dish
Procedure: as §1

TA102 = experiment: Ames test, strain TA102; assay type: cell-based
Procedure: as §1

[2] = system: arrhythmia caused by ischemia/reperfusion insults in anaesthetic rats; experiment: Ischemia/reperfusion arrhythmia in anaesthetic rats, intravenous injection; assay type: in vivo, rat
From the text: (1) Protective Effects of the Tested Compounds on Myocardial Insults in Rats after Intravenously Injection
Arrhythmic potency induced by myocardial insults was used to assess the potential protective effect of the compounds.

TA98 = experiment: Ames test, strain TA98; assay type: cell-based
Procedure: as §1

[3] = 10^−6 M, isolated heart ischemia/reperfusion
[4] = Example 1 table, myocardial cell
[5] = screening of 22 candidate compounds

O=c1c2ccc(Cl)cc2[se]n1-c1ccncc1 [IMM-313, 6-chloro-2-(4-pyridyl)-1,2-benz-isoselenazol-3(2H)-one]
TA100 +S9 (TA100; 0.5 μg/dish): 99.33 ± 2.49
TA100 −S9 (TA100; 0.5 μg/dish): 68.67 ± 17.33
TA100 +S9 (TA100; 5 μg/dish): 111.33 ± 7.71
TA100 −S9 (TA100; 5 μg/dish): 45.67 ± 6.65
TA100 +S9 (TA100; 50 μg/dish): 106.00 ± 7.48
TA100 −S9 (TA100; 50 μg/dish): 0
TA100 +S9 (TA100; 500 μg/dish): 0
TA100 −S9 (TA100; 500 μg/dish): 16.5 ± 0.5
protective effects on myocardial insults ([1]; 10^−6M, isolated heart): significant protective effects
AAT: arrhythmic occurrence time, Time [1, 3]: 1.67 ± 0.70 min
VF (ventricular fibrillation) Incidence rate (%) [1, 3]: 30* %
VPS (ventricular premature beats) Incidence rate (%) [1, 3]: 20* %
VT (ventricular tachycardia) Incidence rate (%) [1, 3]: 30%
Inhibitory rate of inward INa—Ca (%) (Na^+/Ca^2+ exchanger; [4]): 28%
Inhibitory rate of outward INa—Ca (%) (Na^+/Ca^2+ exchanger; [4]): 50%
Inhibitory rate of inward INa—Ca (%) (Na^+/Ca^2+ exchanger; [5]): 28%
Inhibitory rate of outward INa—Ca (%) (Na^+/Ca^2+ exchanger; [5]): 50* %
TA97 +S9 (TA97; 0.5 μg/dish): 64.67 ± 8.65
TA97 −S9 (TA97; 0.5 μg/dish): 47.33 ± 6.13
TA97 +S9 (TA97; 5 μg/dish): 70.33 ± 4.11
TA97 −S9 (TA97; 5 μg/dish): 38.33 ± 13.09
TA97 +S9 (TA97; 50 μg/dish): 60.00 ± 7.12
TA97 −S9 (TA97; 50 μg/dish): 0
TA97 +S9 (TA97; 500 μg/dish): 0
TA97 −S9 (TA97; 500 μg/dish): 33.33 ± 13.59
mutagenic effect (Ames test) (TA97; TA98; TA100; TA102): No evidence for a mutagenic effect
TA102 +S9 (TA102; 0.5 μg/dish): 250.00 ± 10.00
TA102 −S9 (TA102; 0.5 μg/dish): 215.33 ± 13.91
TA102 +S9 (TA102; 5 μg/dish): 220.00 ± 28.00
TA102 −S9 (TA102; 5 μg/dish): 211.33 ± 18.35
TA102 +S9 (TA102; 50 μg/dish): 265.33 ± 15.43
TA102 −S9 (TA102; 50 μg/dish): 0
TA102 +S9 (TA102; 500 μg/dish): 0
TA102 −S9 (TA102; 500 μg/dish): 177.67 ± 23.33
incidence and duration of VT, VF, VE / ventricular arrhythmic ([2]; 3 mg/Kg intravenous (femoral vein), rats): no significant effect
rats with heart rate irreversibly reduced within 5 min (died at last) ([2]; 3 mg/Kg intravenous, before ligation, 7/17 rats): 41.2%
TA98 +S9 (TA98; 0.5 μg/dish): 49.33 ± 3.86
TA98 −S9 (TA98; 0.5 μg/dish): 100.50 ± 3.50
TA98 +S9 (TA98; 5 μg/dish): 50.33 ± 5.79
TA98 −S9 (TA98; 5 μg/dish): 86.50 ± 5.50
TA98 +S9 (TA98; 50 μg/dish): 47.33 ± 1.25
TA98 −S9 (TA98; 50 μg/dish): 0
TA98 +S9 (TA98; 500 μg/dish): 0
TA98 −S9 (TA98; 500 μg/dish): 87.67 ± 5.25
